Earlier results, collected in patent US20050208119A1, “Encapsulated oral chelating preparations” (priority 2004, published 2005).

Settings: oral administration

## O=C(O)CN(CCN(CC(=O)O)CC(=O)O)CC(=O)O [EDTA, ethylene-diaminetetraacetic acid]
General consensus
  fraction absorbed when administered by mouth: about five
reported
  unabsorbed fraction that remains within the digestive tract: 95%
